In publication PMC3200116 (Journal of medicinal chemistry, 2011):
Structures can show the parent of a compound that is named as a salt.

Columns and labels:
α4β2 nACh receptors [1] = biological target: T1, α4β2 nACh receptors (Homo sapiens, UniProt P17787+P43681); experiment: Antagonism; assay type: cell-based
α4β2 nACh receptors [2] = biological target: T1, α4β2 nACh receptors; assay type: cell-based; conditions: for positive allosteric modulation (potentiation of ACh), in words: highest concentrations evaluated; for potency as positive allosteric modulator relative to 1: compared with 1
α3β4 nACh receptors = conditions: Xenopus oocytes; cited from earlier work
α7 nACh receptors = conditions: cited from earlier work
α3β2 nACh receptors = conditions: Xenopus oocytes; cited from earlier work
α4β4 nACh receptors = conditions: Xenopus oocytes; cited from earlier work
human α7 nACh receptors = human α7 nACh receptors (Homo sapiens, UniProt P36544); conditions: at concentrations slightly higher than those potentiating at α4β2; cited from earlier work
Sequence of human α7 nACh receptors (P36544 23-502): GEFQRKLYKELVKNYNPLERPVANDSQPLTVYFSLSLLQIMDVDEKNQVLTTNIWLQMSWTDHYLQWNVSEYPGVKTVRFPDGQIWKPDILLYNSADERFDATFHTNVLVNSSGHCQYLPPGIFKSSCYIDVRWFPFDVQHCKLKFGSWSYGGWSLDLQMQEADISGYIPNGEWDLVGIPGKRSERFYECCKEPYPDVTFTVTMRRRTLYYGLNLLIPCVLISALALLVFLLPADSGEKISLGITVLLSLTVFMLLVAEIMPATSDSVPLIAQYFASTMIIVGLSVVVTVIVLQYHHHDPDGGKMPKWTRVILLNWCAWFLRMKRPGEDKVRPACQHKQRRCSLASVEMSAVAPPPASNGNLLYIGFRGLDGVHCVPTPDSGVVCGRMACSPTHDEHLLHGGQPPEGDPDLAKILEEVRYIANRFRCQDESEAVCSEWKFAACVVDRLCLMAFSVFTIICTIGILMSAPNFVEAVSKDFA

α4β2 nACh receptors [3] = biological target: T1, α4β2 nACh receptors; conditions: potentiation of ACh at α4β2, cited from earlier work

T1 sequence (P43681 27-627): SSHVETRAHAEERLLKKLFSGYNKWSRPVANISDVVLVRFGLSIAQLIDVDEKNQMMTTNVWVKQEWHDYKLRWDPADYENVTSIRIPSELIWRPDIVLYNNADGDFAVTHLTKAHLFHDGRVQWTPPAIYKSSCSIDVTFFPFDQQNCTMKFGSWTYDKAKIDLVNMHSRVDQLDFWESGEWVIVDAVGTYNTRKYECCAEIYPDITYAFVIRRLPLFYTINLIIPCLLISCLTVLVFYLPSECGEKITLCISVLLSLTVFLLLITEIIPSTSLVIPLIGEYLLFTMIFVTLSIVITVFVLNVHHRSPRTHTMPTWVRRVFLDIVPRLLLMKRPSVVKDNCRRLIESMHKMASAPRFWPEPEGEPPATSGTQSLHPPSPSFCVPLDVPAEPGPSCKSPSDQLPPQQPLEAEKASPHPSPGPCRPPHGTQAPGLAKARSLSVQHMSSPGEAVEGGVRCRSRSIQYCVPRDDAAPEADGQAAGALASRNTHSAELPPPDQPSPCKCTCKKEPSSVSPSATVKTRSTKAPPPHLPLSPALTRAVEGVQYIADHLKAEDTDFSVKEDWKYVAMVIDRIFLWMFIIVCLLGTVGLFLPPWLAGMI
T1 sequence (P17787 26-502): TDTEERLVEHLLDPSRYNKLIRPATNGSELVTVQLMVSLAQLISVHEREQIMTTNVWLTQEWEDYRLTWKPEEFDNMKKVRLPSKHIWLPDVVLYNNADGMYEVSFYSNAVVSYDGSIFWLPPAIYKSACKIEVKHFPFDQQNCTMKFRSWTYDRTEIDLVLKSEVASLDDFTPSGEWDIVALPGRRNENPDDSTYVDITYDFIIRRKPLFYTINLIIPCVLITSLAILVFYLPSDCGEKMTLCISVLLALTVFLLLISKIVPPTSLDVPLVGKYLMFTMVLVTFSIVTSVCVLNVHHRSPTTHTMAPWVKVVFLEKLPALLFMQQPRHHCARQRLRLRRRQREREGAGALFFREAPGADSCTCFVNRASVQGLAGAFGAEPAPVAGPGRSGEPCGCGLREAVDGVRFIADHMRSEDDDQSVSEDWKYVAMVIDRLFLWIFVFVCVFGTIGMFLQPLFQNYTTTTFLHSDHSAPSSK

Row | SMILES | IC50 (α4β2 nACh receptors [1]) | positive allosteric modulation (potentiation of ACh), in words (α4β2 nACh receptors [2]) | also measured
1 | CCCc1[nH]c2ccccc2c1CCNC [Compound 10, N-Methyl-2-(n-propyl)tryptamine Oxalate] | 18.6 µM | inactivity | 
2 | C=CC(C)(C)c1[nH]c2cc(Br)ccc2c1CCNC.Cl [Compound 1, des-formylflustrabromine] |  |  | potentiation of the actions of ACh at α3β4 (α3β4 nACh receptors): failed to potentiate; potentiation of the actions of ACh at α7 (α7 nACh receptors; Xenopus oocytes): failed to potentiate; potentiation of the action of ACh in an α7 preparation (α7 nACh receptors): failed to potentiate; potentiation of the actions of ACh at α3β2 (α3β2 nACh receptors): failed to potentiate; potentiation of the actions of ACh at α4β4 (α4β4 nACh receptors): failed to potentiate; inhibition of the action of ACh in an α7 preparation (human α7 nACh receptors): inhibited; pEC50 originally reported (α4β2 nACh receptors [3]): ca. 6.8; EC50 (α4β2 nACh receptors [3]; read-out: EC50 originally reported): 0.12 µM
3 | CNCCc1c[nH]c2cc(Br)ccc12 [Compound 3, N-Methyl-6-bromotryptamine] | 39.8 µM | failed to enhance the action of ACh | 
4 | C=CC(C)(C)c1[nH]c2cc(Br)ccc2c1CCN [Compound 2, 6-Bromo-2-(1,1-dimethylallyl)tryptamine Hydrochloride] |  |  | potency as positive allosteric modulator relative to 1 (α4β2 nACh receptors [2]): about half as potent as 1
5 | CCCc1[nH]c2cc(Br)ccc2c1CCNC [Compound 4, N-Methyl-6-bromo-2-n-propyltryptamine Oxalate] | 72.4 µM |  | 
6 | CNCCc1c(C(C)(C)C)[nH]c2ccccc12 [Compound 11, N-Methyl-2-(tert-butyl)tryptamine Hydrogen Oxalate] |  | active | 
7 | C=CCc1[nH]c2cc(Br)ccc2c1CCNC [Compound 5, N-Methyl-2-allyl-6-bromotryptamine Oxalate] | 3.55 µM | lacked potentiating activity | 
8 | CCC(C)c1[nH]c2ccccc2c1CCNC (stereo not drawn) [Compound 9, N-Methyl-2-sec-butyltryptamine Oxalate] | 16.6 µM | inactive | 
9 | CNCCc1c(C(C)C)[nH]c2ccccc12 [Compound 12, N-Methyl-2-isopropyltryptamine Hydrochloride] |  | inactive | 
10 | CCC(C)(C)c1[nH]c2cc(Br)ccc2c1CCNC [Compound 6, N-Methyl-6-bromo-2-(1,1-dimethylpropyl)tryptamine Oxalate] |  |  | potency as positive allosteric modulator relative to 1 (α4β2 nACh receptors [2]): at least as potent, if not twice as potent, as 1
